Earlier results in patent US20240199641A1, “QUINAZOLINE-4(3H)-ONE DERIVATIVES AS NEGATIVE ALLOSTERIC MODULATORS OF METABOTROPIC GLUTAMATE RECEPTOR 2” (Vanderbilt University, priority 2021, published 2024).
Read-outs that look alike come from different tables or passages of the source.

Key:
[1] = normal animals
[2] = C57Bl6/J mice
[3] = mice
[4] = test system: central mGlu2 and mGlu3 receptors; conditions: in vivo
[5] = normal animals; remark: listed apart in the source
[6] = for activity in tail suspension test: Helpless (H) mice
[7] = olfactory bulbectomized rats, repeated administration for 14 days
[8] = social isolation reared mice
[9] = treatment for 7 days
[10] = CFS model

| SMILES | antidepressant-like effects in mouse TST [1] | immobility time in FST [2] | marble-burying behavior [3] | hypolocomotor effect of mGlu2/3 agonist LY379268 [4] | antidepressant-like effects in rat FST [5] | activity in tail suspension test [6] | freezing behavior [10] | further results |
| --- | --- | --- | --- | --- | --- | --- | --- | --- |
| CCCCCCCOC(=O)[C@@]1(F)[C@@H]2C[C@@H](OCc3ccc(Cl)c(Cl)c3)[C@@](N)(C(=O)O)[C@@H]21 [BCI-838] |  |  |  |  |  |  |  | duration of inhibition of group II mGlu receptors by brain concentration of active metabolite BCI-632 (group II mGlu receptors; once-daily oral dosing): 22 h; Dutch APP transgene-associated learning and memory impairment (group II mGlu receptors; three months of treatment): reversed; anxiolytic effects (group II mGlu receptors; three months of treatment): anxiolytic effects; levels of monomeric and oAβ peptides in hippocampus and cortex (group II mGlu receptors; three months of treatment, two AD mouse models): decreased; hippocampal progenitor cell proliferation (group II mGlu receptors; wild-type and Alzheimer's diseased mice, 3 months): stimulated |
| N[C@](CC1c2ccccc2Oc2ccccc21)(C(=O)O)[C@H]1C[C@@H]1C(=O)O [LY341495] | Antidepressant-like effects | dose-dependently reduced | significantly reduce | achieved the same result | Antidepressant-like effects | active |  | antidepressant effect in helpless mice ([6]; acute administration): potent antidepressant effect |
| N[C@]1(C(=O)O)[C@H]2[C@@H](C[C@H]1OCc1ccc(Cl)c(Cl)c1)[C@]2(F)C(=O)O [MGS0039] | Antidepressant-like effects |  | reduced |  | Antidepressant-like effects |  | significantly decreased | hyperactivity in the open field test [7]: attenuated; learning deficit in the passive avoidance test [7]: attenuated; increased immobility in FST [8]: reversed; spontaneous locomotor activity [3]: no significant change; number of escape failures [9]: significantly reduced |
| Cc1cc(-c2cccc(C3=Nc4cc(C)c(C(F)(F)F)cc4NC(=O)C3)c2)cc(C)n1 [RO4491533] |  | dose-dependently reduced |  | reversed |  | active |  |  |
| CN1C(=O)CN=C(c2ccccc2)c2cc(Cl)ccc21 [diazepam] |  |  |  |  |  |  | significantly decreased |  |
| CNCCC(Oc1ccc(C(F)(F)F)cc1)c1ccccc1 (centres unmarked) [fluoxetine] |  |  |  |  |  |  |  | antidepressant effect in helpless mice ([6]; chronic (21 days) treatment): full antidepressant effect |
